Data published in patent US20230348540A1, “Viral multimeric peptide constructs for targeting PDZ domains” (University of Copenhagen, priority 2020, published 2023).
Blank lines part the entries; values can stand above or below the molecule they belong to. Peptide text beside a SMILES is read from it. * marks the point of attachment. Biotin = O=C1N[C@H]2[C@H](CS[C@H]2CCCCC(=O)*)N1; Ahx = NCCCCCC(=O)O

Experiments:
PICK1 [1] = target: T1, PICK1 (Rattus norvegicus, UniProt Q9EP80); test: Fluorescence polarization competition of HWLKV substitution peptide libraries (Example 6); type: binding; details: relative to HWLKV, tracer 5FAM-HWLKV 20 nM, FIG. 7, in words
T1 construct: Full length rat PICK1 (pET41) was prepared as described earlier; inferred from pET41 and glutathione-Sepharose capture) (N, cleaved yes); made in house; host or cells: E. coli BL21-DE3-pLysS
Description: Fluorescence polarization: Fluorescence polarization was carried out in competition mode at a fixed concentration of protein and tracer (5[…], 20 nM), against an increasing concentration of indicated unlabeled peptide. The plate was incubated 20 min on ice in a black half-area Corning Black non-binding surface 96-well plate and the fluorescence polarization was measured directly on a Omega POLARstar plate reader using excitation filter at 488-nm and long pass emission filter at 535-nm.

PSD-95 PDZ12 [2] = target: T2, PSD-95 PDZ12 (Homo sapiens, UniProt P78352); test: Confocal microscopy on liquid-liquid phase separation droplets, PSD-95 PDZ1-2 (Example 8); details: 100 μM PSD-95 PDZ1-2
T2 construct: Fluorescence polarization for PSD-95 (FL and PDZ12)
Description: Images were acquired using averaging of 4 line scans and 12-bit. The liquid-liquid phase separation droplets were prepared in the desired concentration in Phosphate buffered Saline supplemented with 1 mM TCEP (PBS-TCEP) and added to an untreated lab tec (155411PK) and imaged after being allowed to settle for 5 min at 25° C. For samples containing fluorescent protein or peptide the content of fluorescent protein or peptide was kept at 1% of indicated total protein or peptide concentration.

FL-PSD-95 = target: T3, FL-PSD-95 (Homo sapiens, UniProt P78352); test: Size exclusion chromatography of PSD-95 in absence or presence of peptide; details: 10 μM FL-PSD-95, 50 μM peptide, Example 8
T3 construct: TRX-6xHis-hPSD95 1-724 encoding plasmid; TRX (thioredoxin) (N); 6xHis (N); made in house; host or cells: E. coli BL21-DE3-pLysS
Description: (§1) Size exclusion chromatography: was done using a Äkta purifier with a Superdex200 Increase 10/300 column, where, 500 μL of 30 μM PICK1 or 200 μL 10 uM of FL-PSD-95 in absence or presence of peptides was loaded. Absorbance profile was measured at 280 nm and plotted against elution volume using Graph Pad Prism 8.3.

PSD-95 PDZ12 [3] = target: T2, PSD-95 PDZ12; test: Fluorescence polarization for PSD-95 PDZ12 (Example 8); type: binding; details: in words, FIG. 18
Description: Fluorescence polarization for PSD-95 (FL and PDZ12): Fluorescence polarization was carried out in competition mode at a fixed concentration of protein (150 nM) and tracer (5[…], 5 nM), against an increasing concentration of unlabeled peptide.

PICK1 [4] = target: T1, PICK1; test: Fluorescence Polarization for PICK1 (Example 8); type: binding; details: in words, FIG. 17
Description: The plates were incubated 30-40 min on ice and the fluorescence polarization was measured on an Omega POLARstar plate (BMG LABTECH) reader using excitation filter at 485 nm and long pass emission filter at 520 nm. The data was plotted using GraphPad Prism 8.3, and fitted to the ‘One site—Fit’ Ki competition curve, to extract apparent KI values.

[5] = SEC-MALS of peptides (oligomeric state); type: physicochemical; details: 50 μL of 1000 μM peptide, Example 7
Description: Size exclusion chromatography Multi angle light scattering (SEC-MALS): was done using an Agilent HPLC equipped with a Wyatt MALS setup, where 50 μL of 1000 μM, of indicated peptide, was loaded onto a Superdex200 Increase 10/300 column. Resulting data was analyzed and molecular weight was calculated using the ASTRA® software package, data was plotted using GraphPad Prism 8.3.

PSD-95 = target: T4, PSD-95 (Homo sapiens, UniProt P78352); test: SDS-PAGE sedimentation assay; details: 3 μM PSD-95, 12 μM or 36 μM peptide
T4 construct: TRX-6xHis-hPSD95 1-724 encoding plasmid; TRX (thioredoxin) (N); 6xHis (N); made in house; host or cells: E. coli BL21-DE3-pLysS
Description: SDS-PAGE sedimentation assay: Proteins were mixed in the desired concentration in PBS-TCEP and equilibrated for 10 min before centrifugation at 20 000 g for 15 min at 25° C. using a temperature controlled table top centrifuge. Following centrifugation the supernatant was collected and the pellet was re-suspended in an equal amount of PBS-TCEP, usually 50 μL. To ensure proper resuspension of LLPS, the samples were vortexed before addition of SDS buffer followed by boiling at 95° C. for 5 min. Supernatant and pellet fractions were run on any kD™ Mini-PROTEAN® TGX™ Precast Protein Gels (10 or 15 wells, BioRad 4569036 or 4569033). Gels were imaged using a Li-COR Odyssey gel scanner and band intensities were analyzed using ImageJ.

PICK1 [6] = target: T1, PICK1; test: Size exclusion chromatography of PICK1 in absence or presence of peptide; details: 30 μM PICK1, 50 μM peptide, Example 8
Description: Absorbance profiles were measured at 280 nm and plotted against elution volume using Graph Pad Prism 8.3.
as §1

T2 sequence (P78352 61-249 limits assumed): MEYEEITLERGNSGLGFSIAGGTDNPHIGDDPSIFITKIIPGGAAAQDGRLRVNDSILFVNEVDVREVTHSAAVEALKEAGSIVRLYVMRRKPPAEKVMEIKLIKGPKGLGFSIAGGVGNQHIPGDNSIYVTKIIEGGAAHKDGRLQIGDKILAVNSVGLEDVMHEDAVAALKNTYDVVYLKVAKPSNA
T1 sequence (Q9EP80 whole entry): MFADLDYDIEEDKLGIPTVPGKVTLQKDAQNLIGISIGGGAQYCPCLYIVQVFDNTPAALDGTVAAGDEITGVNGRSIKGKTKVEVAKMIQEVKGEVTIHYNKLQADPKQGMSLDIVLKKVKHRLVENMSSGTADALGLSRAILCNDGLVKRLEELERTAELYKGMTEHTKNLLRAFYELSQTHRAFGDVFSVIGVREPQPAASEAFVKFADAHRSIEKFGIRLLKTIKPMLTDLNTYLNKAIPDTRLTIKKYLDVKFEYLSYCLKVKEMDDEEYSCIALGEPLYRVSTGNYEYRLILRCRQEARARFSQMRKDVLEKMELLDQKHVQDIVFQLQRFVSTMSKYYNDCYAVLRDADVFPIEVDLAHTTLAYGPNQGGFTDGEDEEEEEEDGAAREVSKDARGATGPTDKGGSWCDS
T3 sequence (P78352 whole entry): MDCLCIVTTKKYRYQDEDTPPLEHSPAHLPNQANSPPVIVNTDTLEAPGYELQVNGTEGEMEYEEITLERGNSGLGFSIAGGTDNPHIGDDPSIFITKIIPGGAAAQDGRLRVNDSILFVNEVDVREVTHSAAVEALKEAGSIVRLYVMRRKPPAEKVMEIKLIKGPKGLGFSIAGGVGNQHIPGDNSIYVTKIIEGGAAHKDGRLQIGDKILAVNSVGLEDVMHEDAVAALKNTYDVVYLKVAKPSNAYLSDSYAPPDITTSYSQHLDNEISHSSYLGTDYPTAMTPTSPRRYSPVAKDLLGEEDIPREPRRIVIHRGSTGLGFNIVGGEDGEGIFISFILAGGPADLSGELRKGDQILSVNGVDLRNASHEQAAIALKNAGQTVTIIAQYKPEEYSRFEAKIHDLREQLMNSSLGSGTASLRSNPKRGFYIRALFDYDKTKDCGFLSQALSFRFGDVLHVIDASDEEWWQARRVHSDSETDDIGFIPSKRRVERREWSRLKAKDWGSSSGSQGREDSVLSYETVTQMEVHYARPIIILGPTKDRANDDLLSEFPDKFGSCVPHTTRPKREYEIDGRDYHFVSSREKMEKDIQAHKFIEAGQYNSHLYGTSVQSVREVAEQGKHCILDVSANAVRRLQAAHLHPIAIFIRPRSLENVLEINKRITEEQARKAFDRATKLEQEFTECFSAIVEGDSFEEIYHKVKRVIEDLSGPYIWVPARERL
T4 sequence (P78352 whole entry): as above

Molecule: CC[C@H](C)[C@H](NC(=O)[C@H](CCC(=O)O)NC(=O)CNC(=O)CCCCCNC(=O)CCCC[C@@H]1SC[C@@H]2NC(=O)N[C@@H]21)C(=O)N[C@@H](C)C(=O)N[C@@H](CCCCN)C(=O)N[C@@H](CO)C(=O)N[C@@H](CC(C)C)C(=O)N[C@@H](CCCCN)C(=O)N[C@@H](CCC(=O)O)C(=O)N[C@H](C(=O)N[C@@H](C)C(=O)N[C@@H](CCCCN)C(=O)N[C@@H](CO)C(=O)N[C@@H](CC(C)C)C(=O)N[C@@H](CCCCN)C(=O)N[C@@H](CCC(=O)O)C(=O)N[C@H](C(=O)N[C@@H](C)C(=O)N[C@@H](Cc1c[nH]c2ccccc12)C(=O)N[C@@H](CO)C(=O)N[C@@H](CC(C)C)C(=O)N[C@@H](CCCCN)C(=O)N[C@@H](CCC(=O)O)C(=O)N[C@H](C(=O)N[C@@H](C)C(=O)N[C@@H](CCCCN)C(=O)N[C@@H](CO)C(=O)N[C@@H](CC(C)C)C(=O)N[C@@H](CCCCN)C(=O)NCC(=O)NCC(=O)NCC(=O)NCC(=O)N[C@@H](CO)C(=O)N[C@@H](CCCNC(=N)N)C(=O)N[C@@H](CCCNC(=N)N)C(=O)N[C@H](C(=O)N[C@H](C(=O)N1CCC[C@H]1C(=O)N[C@H](C(=O)O)C(C)C)[C@@H](C)O)[C@@H](C)O)[C@@H](C)CC)[C@@H](C)CC)[C@@H](C)CC [CC-Hex2-GS4-RRTTPV] ({Biotin-Ahx}-GEIAKSLKEIAKSLKEIAWSLKEIAKSLKGGGGSRRTTPV-OH; C-terminus assumed)
- threshold for LLPS formation of PSD-95 PDZ1-2 versus dimeric GCN4p1-GS4-RRTTPV (PSD-95 PDZ12 [2]): lowered thresholds for LLPS formation
- formation of higher order oligomers of PSD-95 (SEC) (FL-PSD-95): Formation of higher order oligomers of PSD-95 was also observed
- binding affinity towards PSD95 PDZ1-2 (PSD-95 PDZ12 [3]): high binding affinity

Molecule: YIIV (DAT C5 VARIANT)
- Fold affinity change of combinatorial peptide library (PICK1 [1]): optimal 4-mer sequences

Molecule: CC[C@H](C)[C@H](NC(=O)[C@H](CCC(=O)O)NC(=O)CNC(=O)CCCCCNC(=O)CCCC[C@@H]1SC[C@@H]2NC(=O)N[C@@H]21)C(=O)N[C@@H](C)C(=O)N[C@@H](CCCCN)C(=O)N[C@@H](CO)C(=O)N[C@@H](CC(C)C)C(=O)N[C@@H](CCCCN)C(=O)N[C@@H](CCC(=O)O)C(=O)N[C@H](C(=O)N[C@@H](C)C(=O)N[C@@H](CCCCN)C(=O)N[C@@H](CO)C(=O)N[C@@H](CC(C)C)C(=O)N[C@@H](CCCCN)C(=O)N[C@@H](CCC(=O)O)C(=O)N[C@H](C(=O)N[C@@H](C)C(=O)N[C@@H](Cc1c[nH]c2ccccc12)C(=O)N[C@@H](CO)C(=O)N[C@@H](CC(C)C)C(=O)N[C@@H](CCCCN)C(=O)N[C@@H](CCC(=O)O)C(=O)N[C@H](C(=O)N[C@@H](C)C(=O)N[C@@H](CCCCN)C(=O)N[C@@H](CO)C(=O)N[C@@H](CC(C)C)C(=O)N[C@@H](CCCCN)C(=O)NCC(=O)NCC(=O)NCC(=O)NCC(=O)N[C@@H](CO)C(=O)N[C@H](C(=O)N[C@@H](CCC(=O)O)C(=O)N[C@H](C(=O)N[C@@H](CC(=O)O)C(=O)N[C@H](C(=O)O)C(C)C)[C@@H](C)O)[C@@H](C)CC)[C@@H](C)CC)[C@@H](C)CC)[C@@H](C)CC [CC-Hex2-GS4-IETDV] ({Biotin-Ahx}-GEIAKSLKEIAKSLKEIAWSLKEIAKSLKGGGGSIETDV-OH; C-terminus assumed)
- formation of higher order oligomers of PSD-95 (SEC) (FL-PSD-95): ability to form higher order oligomers of PSD-95
- binding affinity towards PSD95 PDZ1-2 (PSD-95 PDZ12 [3]): high binding affinity

Molecule: GEIAKSLKEIAKSLKEIAWSLKEIAKSLKGGGGSNSVRV (CC-Hex2-GS4-NSVRV)
- binding affinity to PICK1 as compared to the dimeric GCN4p1-GS4-HWLKV (PICK1 [4]): superior binding affinity

Molecule: SNTANRRTTPV (RRTTPV monomer)
- distribution of PSD-95 between supernatant and pellet (PSD-95): the majority of PSD-95 is found in the supernatant

Molecule: NSVRV (DAT C5 VARIANT)
- Fold affinity change of combinatorial peptide library (PICK1 [1]): optimal 5-mer sequences

Molecule: CC[C@H](C)[C@H](NC(=O)[C@H](C)NC(=O)[C@H](C)NC(=O)[C@H](CC(C)C)NC(=O)[C@H](CCC(=O)O)NC(=O)[C@H](Cc1c[nH]c2ccccc12)NC(=O)[C@H](CCCCN)NC(=O)[C@@H](NC(=O)[C@H](C)NC(=O)[C@H](C)NC(=O)[C@H](CC(C)C)NC(=O)[C@H](CCC(=O)O)NC(=O)[C@H](CCCCN)NC(=O)[C@H](CCCCN)NC(=O)[C@@H](NC(=O)[C@H](C)NC(=O)[C@H](C)NC(=O)[C@H](CC(C)C)NC(=O)[C@H](CCC(=O)O)NC(=O)[C@H](CCC(N)=O)NC(=O)[C@H](CCCCN)NC(=O)[C@@H](NC(=O)[C@H](C)NC(=O)[C@H](C)NC(=O)[C@H](CC(C)C)NC(=O)[C@H](CCC(=O)O)NC(=O)CNC(=O)CCCCCNC(=O)CCCC[C@@H]1SC[C@@H]2NC(=O)N[C@@H]21)[C@@H](C)CC)[C@@H](C)CC)[C@@H](C)CC)C(=O)N[C@@H](CCCCN)C(=O)N[C@@H](CCC(N)=O)C(=O)NCC(=O)NCC(=O)NCC(=O)NCC(=O)N[C@@H](CO)C(=O)N[C@@H](Cc1c[nH]cn1)C(=O)N[C@@H](Cc1c[nH]c2ccccc12)C(=O)N[C@@H](CC(C)C)C(=O)N[C@@H](CCCCN)C(=O)N[C@H](C(=O)O)C(C)C [CC-Tet-GS4-HWLKV] ({Biotin-Ahx}-GELAAIKQELAAIKKELAAIKWELAAIKQGGGGSHWLKV-OH; C-terminus assumed)
- formation of higher order oligomers of PICK1 (SEC) (PICK1 [6]): ability to form higher order oligomers of PICK1
- oligomeric configuration (SEC-MALS) [5]: trimeric configuration

Second part, the molecule after the results:

- Fold affinity change of combinatorial peptide library (PICK1 [1]): optimal 3-mer sequences
Molecule: IRV [DAT-C5 variant]

- Fold affinity change of combinatorial peptide library (PICK1 [1]): optimal 5-mer sequences
Molecule: TSIRV (DAT C5 VARIANT)

- Fold affinity change of combinatorial peptide library (PICK1 [1]): optimal 4-mer sequences
Molecule: EIRV (DAT C5 VARIANT)

- binding affinity to PICK1 as compared to the dimeric GCN4p1-GS4-HWLKV (PICK1 [4]): superior binding affinity
- oligomeric configuration (SEC-MALS) [5]: hexameric configuration
Molecule: CC[C@H](C)[C@H](NC(=O)[C@H](CCC(=O)O)NC(=O)CNC(=O)CCCCCNC(=O)CCCC[C@@H]1SC[C@@H]2NC(=O)N[C@@H]21)C(=O)N[C@@H](C)C(=O)N[C@@H](CCCCN)C(=O)N[C@@H](CO)C(=O)N[C@@H](CC(C)C)C(=O)N[C@@H](CCCCN)C(=O)N[C@@H](CCC(=O)O)C(=O)N[C@H](C(=O)N[C@@H](C)C(=O)N[C@@H](CCCCN)C(=O)N[C@@H](CO)C(=O)N[C@@H](CC(C)C)C(=O)N[C@@H](CCCCN)C(=O)N[C@@H](CCC(=O)O)C(=O)N[C@H](C(=O)N[C@@H](C)C(=O)N[C@@H](Cc1c[nH]c2ccccc12)C(=O)N[C@@H](CO)C(=O)N[C@@H](CC(C)C)C(=O)N[C@@H](CCCCN)C(=O)N[C@@H](CCC(=O)O)C(=O)N[C@H](C(=O)N[C@@H](C)C(=O)N[C@@H](CCCCN)C(=O)N[C@@H](CO)C(=O)N[C@@H](CC(C)C)C(=O)N[C@@H](CCCCN)C(=O)NCC(=O)NCC(=O)NCC(=O)NCC(=O)N[C@@H](CO)C(=O)N[C@@H](Cc1c[nH]cn1)C(=O)N[C@@H](Cc1c[nH]c2ccccc12)C(=O)N[C@@H](CC(C)C)C(=O)N[C@@H](CCCCN)C(=O)N[C@H](C(=O)O)C(C)C)[C@@H](C)CC)[C@@H](C)CC)[C@@H](C)CC [CC-Hex2-GS4-HWLKV] ({Biotin-Ahx}-GEIAKSLKEIAKSLKEIAWSLKEIAKSLKGGGGSHWLKV-OH; C-terminus assumed)

- Fold affinity change of combinatorial peptide library (PICK1 [1]): optimal 3-mer sequences
Molecule: IIV [DAT-C5 variant]
